Assay results as given in patent US20070219186A1, “Pyrazolo[1,5-A]pyrimidine derivatives and methods of use thereof” (priority 2006, published 2007).
Read-outs that look alike come from different tables or passages of the source.

Molecular target: T1, human B-Raf (Homo sapiens, UniProt P15056)
T1 construct: Flag; GST; made in house; host or cells: Sf9 insect cells (B-Raf); E. coli (MEK1-GST)
Assay: B-Raf Kinase to MEK1 ELISA
Assay type: biochemical
Conditions: for inhibition at 10 µM: read-out: % Inhib./10 uM
Summary of the method: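 Flag/GST-tagged human B-Raf (Sf9, ~20 ng/point) phosphorylates non-active GST-MEK1 (50 nM final) with ATP and MgCl2 in MOPS pH 7.2 buffer, 60 min at RT. Product is captured on anti-GST plates; MEK1 pSer217/221 is read by phospho-antibody plus europium conjugate (DELFIA).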

[1] = median, cpd concentrations from 10 μM to 30 nM in half log dilutions, read-out: Median IC50

T1 sequence (P15056 whole entry): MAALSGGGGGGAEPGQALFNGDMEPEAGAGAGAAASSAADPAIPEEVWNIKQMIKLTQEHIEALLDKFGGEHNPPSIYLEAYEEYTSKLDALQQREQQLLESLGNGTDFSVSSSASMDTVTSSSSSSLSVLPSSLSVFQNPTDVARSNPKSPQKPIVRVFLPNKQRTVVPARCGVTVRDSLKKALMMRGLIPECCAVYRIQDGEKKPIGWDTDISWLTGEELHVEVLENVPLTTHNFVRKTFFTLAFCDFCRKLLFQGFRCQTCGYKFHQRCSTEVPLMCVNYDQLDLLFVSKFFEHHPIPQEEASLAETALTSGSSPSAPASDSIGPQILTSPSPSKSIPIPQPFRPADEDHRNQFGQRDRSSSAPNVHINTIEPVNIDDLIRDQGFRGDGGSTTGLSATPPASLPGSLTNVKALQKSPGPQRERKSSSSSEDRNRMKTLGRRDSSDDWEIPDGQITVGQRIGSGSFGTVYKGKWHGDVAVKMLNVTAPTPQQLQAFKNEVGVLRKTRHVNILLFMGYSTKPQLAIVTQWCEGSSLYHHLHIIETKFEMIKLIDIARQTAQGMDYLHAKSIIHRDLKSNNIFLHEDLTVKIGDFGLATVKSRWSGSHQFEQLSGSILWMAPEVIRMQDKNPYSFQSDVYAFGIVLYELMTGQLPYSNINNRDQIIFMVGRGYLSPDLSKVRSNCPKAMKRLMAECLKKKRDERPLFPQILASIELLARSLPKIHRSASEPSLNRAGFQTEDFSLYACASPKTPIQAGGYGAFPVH

Compound	IC50 [µM]	IC50 [1] [µM]	inhibition at 10 µM [%]	% Inhib./10 uM (single point assay, 10 uM) [%]
CN(C)CCNc1cc(-c2cc3nccc(-c4cccc(NC(=O)c5cccc(C(F)(F)F)c5)c4)n3n2)ccn1 [Example 266, N-{3-[2-(2-{[2-(dimethylamino)ethyl]amino}pyridin-4-yl)pyrazolo[1,5-a]pyrimidin-7-yl]phenyl}-3-(trifluoromethyl)benzamide]	0.0533			100
NC(=O)c1cccc(-c2cnn3c(-c4cccc(NC(=O)c5cccc(C(F)(F)F)c5)c4)ccnc23)c1 [Example 271, N-(3-{3-[3-(aminocarbonyl)phenyl]pyrazolo[1,5-a]pyrimidin-7-yl}phenyl)-3-(trifluoromethyl)benzamide]	0.057		93	
CN(C)Cc1cccc(-c2cnn3c(-c4cccc(NC(=O)c5cccc(C(F)(F)F)c5)c4)ccnc23)c1 [Example 273, N-[3-(3-{3-[(dimethylamino)methyl]phenyl}pyrazolo[1,5-a]pyrimidin-7-yl)phenyl]-3-(trifluoromethyl)benzamide]		0.0438	97	
CC(C)(C)OC(=O)n1cc(-c2cnn3c(-c4cccc(NC(=O)c5cccc(C(F)(F)F)c5)c4)ccnc23)cn1 [Example 276, tert-butyl 4-[7-(3-{[3-(trifluoromethyl)benzoyl]amino}phenyl)pyrazolo[1,5-a]pyrimidin-3-yl]-1H-pyrazole-1-carboxylate]		2.06	58	
Nc1ccc(-c2cnn3c(-c4cccc(NC(=O)c5cccc(C(F)(F)F)c5)c4)ccnc23)cn1 [Example 278, N-{3-[3-(6-aminopyridin-3-yl)pyrazolo[1,5-a]pyrimidin-7-yl]phenyl}-3-(trifluoromethyl)benzamide]	0.111		96	
CN1CCN(CCCC#Cc2cnn3c(-c4cccc(NC(=O)c5cccc(C(F)(F)F)c5)c4)ccnc23)CC1 [Example 279, N-(3-{3-[5-(4-methylpiperazin-1-yl)pent-1-yn-1-yl]pyrazolo[1,5-a]pyrimidin-7-yl}phenyl)-3-(trifluoromethyl)benzamide]	0.842			
CN(C)CCc1ccccc1-c1cnn2c(-c3cccc(NC(=O)c4cccc(C(F)(F)F)c4)c3)ccnc12 [Example 280, N-[3-(3-{2-[2-(dimethylamino)ethyl]phenyl}pyrazolo[1,5-a]pyrimidin-7-yl)phenyl]-3-(trifluoromethyl)benzamide]		0.318	76	
O=C(Nc1cccc(-c2ccnc3c(C#CCCCN4CCOCC4)cnn23)c1)c1cccc(C(F)(F)F)c1 [Example 282, N-{3-[3-(5-morpholin-4-ylpent-1-yn-1-yl)pyrazolo[1,5-a]pyrimidin-7-yl]phenyl}-3-(trifluoromethyl)benzamide]	0.551		79	
CNc1ccc(-c2cnn3c(-c4cccc(NC(=O)c5cccc(C(F)(F)F)c5)c4)ccnc23)cn1 [Example 284, N-(3-{3-[6-(methylamino)pyridin-3-yl]pyrazolo[1,5-a]pyrimidin-7-yl}phenyl)-3-(trifluoromethyl)benzamide]		0.078	92	
O=C(Nc1cccc(-c2ccnc3c(-c4cccc(CO)c4)cnn23)c1)c1cccc(C(F)(F)F)c1 [Example 286, N-(3-{3-[3-(hydroxymethyl)phenyl]pyrazolo[1,5-a]pyrimidin-7-yl}phenyl)-3-(trifluoromethyl)benzamide]	0.145		77	
CN(C)S(=O)(=O)c1ccc(-c2cnn3c(-c4cccc(NC(=O)c5cccc(C(F)(F)F)c5)c4)ccnc23)cc1 [Example 288, N-[3-(3-{4-[(dimethylamino)sulfonyl]phenyl}pyrazolo[1,5-a]pyrimidin-7-yl)phenyl]-3-(trifluoromethyl)benzamide]		> 10	35	

Further lines, with some results ahead:

IC50 [µM]	IC50 [1] [µM]	inhibition at 10 µM [%]	Compound	% Inhib./10 uM (single point assay, 10 uM) [%]
	0.11	96	O=C(Nc1cccc(-c2ccnc3cc(-c4ccnc(NCCN5CCNC5=O)c4)nn23)c1)c1cccc(C(F)(F)F)c1 [Example 268, N-{3-[2-(2-{[2-(2-oxoimidazolidin-1-yl)ethyl]amino}pyridin-4-yl)pyrazolo[1,5-a]pyrimidin-7-yl]phenyl}-3-(trifluoromethyl)benzamide]	
	2.79	78	CN(CCCN)c1cc(-c2cc3nccc(-c4cccc(NC(=O)c5cccc(C(F)(F)F)c5)c4)n3n2)ccn1 [Example 269, N-[3-(2-{2-[(3-aminopropyl)(methyl)amino]pyridin-4-yl}pyrazolo[1,5-a]pyrimidin-7-yl)phenyl]-3-(trifluoromethyl)benzamide]	
	2.06	80	CN(CCN)c1cc(-c2cc3nccc(-c4cccc(NC(=O)c5cccc(C(F)(F)F)c5)c4)n3n2)ccn1 [Example 270, N-[3-(2-{2-[(2-aminoethyl)(methyl)amino]pyridin-4-yl}pyrazolo[1,5-a]pyrimidin-7-yl)phenyl]-3-(trifluoromethyl)benzamide]	
	0.117	92	CN(C)Cc1ccccc1-c1cnn2c(-c3cccc(NC(=O)c4cccc(C(F)(F)F)c4)c3)ccnc12 [Example 272, N-[3-(3-{2-[(dimethylamino)methyl]phenyl}pyrazolo[1,5-a]pyrimidin-7-yl)phenyl]-3-(trifluoromethyl)benzamide]	
0.084		89	O=C(Nc1cccc(-c2ccnc3c(-c4cn[nH]c4)cnn23)c1)c1cccc(C(F)(F)F)c1 [Example 275, N-{3-[3-(1H-pyrazol-4-yl)pyrazolo[1,5-a]pyrimidin-7-yl]phenyl}-3-(trifluoromethyl)benzamide]	
	0.0407	98	CN(C)CCc1cccc(-c2cnn3c(-c4cccc(NC(=O)c5cccc(C(F)(F)F)c5)c4)ccnc23)c1 [Example 281, N-[3-(3-{3-[2-(dimethylamino)ethyl]phenyl}pyrazolo[1,5-a]pyrimidin-7-yl)phenyl]-3-(trifluoromethyl)benzamide]	
0.0825		93	O=C(Nc1cccc(-c2ccnc3c(-c4ccc(CO)cc4)cnn23)c1)c1cccc(C(F)(F)F)c1 [Example 285, N-(3-{3-[4-(hydroxymethyl)phenyl]pyrazolo[1,5-a]pyrimidin-7-yl}phenyl)-3-(trifluoromethyl)benzamide]	
	> 10	12	O=C(Nc1cccc(-c2ccnc3cc(-c4ccc(Br)cc4)nn23)c1)c1cccc(C(F)(F)F)c1 [Example 287, N-{3-[2-(4-bromophenyl)pyrazolo[1,5-a]pyrimidin-7-yl]phenyl}-3-(trifluoromethyl)benzamide]	
	0.026	86	CN(C)CCc1ccc(-c2cnn3c(-c4cccc(NC(=O)c5cccc(C(F)(F)F)c5)c4)ccnc23)cc1 [Example 289, N-[3-(3-{4-[2-(dimethylamino)ethyl]phenyl}pyrazolo[1,5-a]pyrimidin-7-yl)phenyl]-3-(trifluoromethyl)benzamide]	
0.367		67	O=C(Nc1cccc(-c2ccnc3c(-c4ccccc4C(F)(F)F)cnn23)c1)c1cccc(C(F)(F)F)c1 [Example 290, 3-(trifluoromethyl)-N-(3-{3-[2-(trifluoromethyl)phenyl]pyrazolo[1,5-a]pyrimidin-7-yl}phenyl)benzamide]	
